Nine molecules from patent US10040781B2, “Tank-binding kinase inhibitor compounds” (Gilead Sciences, Inc., priority 2014, dated 2018) can be followed below.

Where a name gives a salt, the structure may show the parent alone.

For one assay, the target named is hJAK2 (Homo sapiens (Human), UniProt O60674). In words: hJAK2 LANCE TR-FRET enzymatic assay. It counts as biochemical. To be noted: read-out: JAK2 IC50. (In general: TR-FRET usually uses a lanthanide donor and a delayed reading to cut background.)
The target in the next assay is IKKε (Homo sapiens (Human), UniProt Q14164). Nature of the assay: IKKε TR-FRET enzymatic assay. To be noted: read-out: IKKe IC50. It counts as biochemical.
The target in a further assay is TBK1 (Homo sapiens (Human), UniProt Q9UHD2). Nature of the assay: TBK1 TR-FRET enzymatic assay.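 Further: phosphorylation of a biotinylated Ser/Thr peptide by purified full-length recombinant TBK1, read by TR-FRET after 240 min at 25 °C, IC50 is the geometric mean of at least four runs.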
TBK1, sequence (Q9UHD2 whole entry): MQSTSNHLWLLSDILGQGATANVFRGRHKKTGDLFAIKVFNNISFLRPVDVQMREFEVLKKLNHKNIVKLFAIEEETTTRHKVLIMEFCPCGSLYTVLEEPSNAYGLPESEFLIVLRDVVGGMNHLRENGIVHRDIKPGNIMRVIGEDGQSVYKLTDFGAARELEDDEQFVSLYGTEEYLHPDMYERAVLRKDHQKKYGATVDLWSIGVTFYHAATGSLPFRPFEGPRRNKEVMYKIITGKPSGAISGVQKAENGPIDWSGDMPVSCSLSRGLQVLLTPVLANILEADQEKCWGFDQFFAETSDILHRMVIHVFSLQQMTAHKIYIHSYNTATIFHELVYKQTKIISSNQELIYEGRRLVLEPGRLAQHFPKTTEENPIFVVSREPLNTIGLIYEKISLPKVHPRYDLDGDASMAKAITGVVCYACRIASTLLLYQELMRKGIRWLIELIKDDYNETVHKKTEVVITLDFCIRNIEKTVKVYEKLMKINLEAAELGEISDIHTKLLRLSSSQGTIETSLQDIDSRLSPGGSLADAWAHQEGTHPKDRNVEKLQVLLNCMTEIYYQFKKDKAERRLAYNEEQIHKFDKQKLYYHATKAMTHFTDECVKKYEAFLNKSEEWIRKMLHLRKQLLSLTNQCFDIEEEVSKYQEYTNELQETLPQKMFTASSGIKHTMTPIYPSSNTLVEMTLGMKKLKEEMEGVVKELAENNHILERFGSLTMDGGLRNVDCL

IKKε, sequence (Q14164 whole entry): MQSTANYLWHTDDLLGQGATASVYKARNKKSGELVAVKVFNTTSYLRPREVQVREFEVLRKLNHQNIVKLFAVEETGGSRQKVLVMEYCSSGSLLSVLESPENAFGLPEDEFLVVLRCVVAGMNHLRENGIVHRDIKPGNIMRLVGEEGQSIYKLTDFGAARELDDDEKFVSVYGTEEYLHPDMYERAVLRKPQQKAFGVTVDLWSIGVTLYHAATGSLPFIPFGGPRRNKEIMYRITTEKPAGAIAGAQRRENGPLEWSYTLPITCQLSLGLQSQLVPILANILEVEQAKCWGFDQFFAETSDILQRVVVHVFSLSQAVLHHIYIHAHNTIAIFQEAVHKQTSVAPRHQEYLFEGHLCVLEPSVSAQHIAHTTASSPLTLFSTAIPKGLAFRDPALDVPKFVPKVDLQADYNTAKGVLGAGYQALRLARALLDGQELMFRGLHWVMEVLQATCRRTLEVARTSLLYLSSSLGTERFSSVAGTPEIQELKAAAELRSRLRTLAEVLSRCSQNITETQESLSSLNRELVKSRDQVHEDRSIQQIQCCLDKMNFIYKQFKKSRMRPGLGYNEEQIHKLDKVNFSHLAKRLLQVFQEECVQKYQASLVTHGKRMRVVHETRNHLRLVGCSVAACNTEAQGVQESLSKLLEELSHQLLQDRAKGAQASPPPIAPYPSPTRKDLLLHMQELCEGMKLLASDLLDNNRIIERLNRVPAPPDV
hJAK2, sequence (O60674 whole entry): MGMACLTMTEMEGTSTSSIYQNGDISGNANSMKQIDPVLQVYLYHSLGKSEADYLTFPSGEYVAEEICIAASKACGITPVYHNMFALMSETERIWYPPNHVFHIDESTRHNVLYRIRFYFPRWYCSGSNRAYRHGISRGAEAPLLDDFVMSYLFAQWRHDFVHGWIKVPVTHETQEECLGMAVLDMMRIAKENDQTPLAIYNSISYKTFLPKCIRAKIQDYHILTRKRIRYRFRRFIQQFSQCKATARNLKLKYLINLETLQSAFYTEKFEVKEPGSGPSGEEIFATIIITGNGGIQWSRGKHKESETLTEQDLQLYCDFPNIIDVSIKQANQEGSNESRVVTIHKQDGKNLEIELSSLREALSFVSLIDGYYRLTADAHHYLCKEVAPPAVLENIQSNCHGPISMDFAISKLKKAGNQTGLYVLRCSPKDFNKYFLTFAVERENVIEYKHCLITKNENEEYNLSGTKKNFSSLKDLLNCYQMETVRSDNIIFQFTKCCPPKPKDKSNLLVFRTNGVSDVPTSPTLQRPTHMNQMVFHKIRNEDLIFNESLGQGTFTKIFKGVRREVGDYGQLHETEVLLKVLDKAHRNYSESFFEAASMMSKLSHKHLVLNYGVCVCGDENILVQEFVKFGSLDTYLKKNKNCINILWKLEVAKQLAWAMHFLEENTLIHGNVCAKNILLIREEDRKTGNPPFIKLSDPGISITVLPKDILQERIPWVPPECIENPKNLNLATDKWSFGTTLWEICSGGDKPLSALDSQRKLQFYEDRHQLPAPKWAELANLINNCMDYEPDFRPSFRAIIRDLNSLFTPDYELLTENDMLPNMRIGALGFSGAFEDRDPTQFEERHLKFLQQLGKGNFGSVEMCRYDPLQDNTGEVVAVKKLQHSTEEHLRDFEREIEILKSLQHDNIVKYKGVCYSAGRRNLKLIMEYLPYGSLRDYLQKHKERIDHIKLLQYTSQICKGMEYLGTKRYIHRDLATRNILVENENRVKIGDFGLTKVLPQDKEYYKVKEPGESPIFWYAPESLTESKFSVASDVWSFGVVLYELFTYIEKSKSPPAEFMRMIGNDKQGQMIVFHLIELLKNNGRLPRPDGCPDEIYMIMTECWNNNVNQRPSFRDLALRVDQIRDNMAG

In the case of `C[C@H](O)C(=O)N1CCC(Oc2ccc(-c3ncnc(Nc4ccc(N5CCN(C6COC6)CC5)cc4)n3)cc2C#N)CC1` [Example 15, (S)-2-((1-(2-hydroxypropanoyl)piperidin-4-yl)oxy)-5-(4-((4-(4-(oxetan-3-yl)piperazin-1-yl)phenyl)amino)-1,3,5-triazin-2-yl)benzonitrile], the results for the IC50 at hJAK2, at IKKε and at TBK1 were above 1000 nM, 14 nM and 5 nM, respectively.

Take `N#Cc1cc(-c2ncnc(Nc3ccc(N4CCN(C5COC5)CC4)cc3)n2)ccc1OC1CCN(C(=O)CO)CC1` [Example 16, 2-((1-(2-hydroxyacetyl)piperidin-4-yl)oxy)-5-(4-((4-(4-(oxetan-3-yl)piperazin-1-yl)phenyl)amino)-1,3,5-triazin-2-yl)benzonitrile]: the results for the IC50 on hJAK2, on IKKε and at TBK1 were 603 nM, 4 nM and 1 nM, respectively.

`N#Cc1cc(-c2ncnc(Nc3ccc(N4CCN(C5COC5)CC4)cc3)n2)ccc1OC1CCS(=O)(=O)CC1` [Example 17, 2-((1,1-dioxidotetrahydro-2H-thiopyran-4-yl)oxy)-5-(4-((4-(4-(oxetan-3-yl)piperazin-1-yl)phenyl)amino)-1,3,5-triazin-2-yl)benzonitrile]: the IC50 on hJAK2 was 540 nM; on IKKε, 54 nM; at TBK1 it was 9 nM.

Take `N#Cc1cc(-c2ncnc(Nc3ccc(N4CCNCC4)cc3)n2)ccc1OC1CCOCC1` [Example 18, 5-(4-((4-(piperazin-1-yl)phenyl)amino)-1,3,5-triazin-2-yl)-2-((tetrahydro-2H-pyran-4-yl)oxy)benzonitrile, trifluoroacetic acid salt]: the IC50 at hJAK2 is 271 nM; at IKKε, 1 nM; against TBK1, 1 nM.

With `N#Cc1cc(-c2ncnc(Nc3ccc(N4CCN(C5COC5)CC4)cc3)n2)ccc1OC1CCSCC1` [Example 19, 5-(4-((4-(4-(oxetan-3-yl)piperazin-1-yl)phenyl)amino)-1,3,5-triazin-2-yl)-2-((tetrahydro-2H-thiopyran-4-yl)oxy)benzonitrile], the IC50 at hJAK2 was above 1000 nM; at IKKε it was 4 nM; on TBK1 it was 1 nM.

`COc1cc(Nc2ncnc(-c3ccc(OC4CCOCC4)c(C#N)c3)n2)ccc1C1CCN(C2COC2)CC1` [Example 20, 5-(4-((3-methoxy-4-(1-(oxetan-3-yl)piperidin-4-yl)phenyl)amino)-1,3,5-triazin-2-yl)-2-((tetrahydro-2H-pyran-4-yl)oxy)benzonitrile]: the half-maximal inhibitory concentration (IC50) is above 1000 nM on hJAK2, 2 nM on IKKε and 2 nM at TBK1.

In the case of `COc1cc(Nc2ncnc(-c3ccc(OC4CCOCC4)c(C#N)c3)n2)ccc1C(N)=O` [Example 21, 4-((4-(3-cyano-4-((tetrahydro-2H-pyran-4-yl)oxy)phenyl)-1,3,5-triazin-2-yl)amino)-2-methoxybenzamide], the IC50 is above 1000 nM on hJAK2, 6 nM at IKKε and 4 nM against TBK1.

Regarding `COc1cc(Nc2ncnc(-c3ccc(O[C@@H]4CCN(C(=O)CO)C4)c(C#N)c3)n2)ccc1N1CCN(C2COC2)CC1` [Example 22, (R)-2-((1-(2-hydroxyacetyl)pyrrolidin-3-yl)oxy)-5-(4-((3-methoxy-4-(4-(oxetan-3-yl)piperazin-1-yl)phenyl)amino)-1,3,5-triazin-2-yl)benzonitrile], the IC50 at hJAK2 came out at 128 nM; at IKKε, 8 nM; at TBK1, 3 nM.

Regarding `C[C@H](O)C(=O)N1CCC(Oc2ccc(-c3ncnc(Nc4ccc(C5CCN(C6COC6)CC5)cc4)n3)cc2C#N)CC1` [Example 23, (S)-2-((1-(2-hydroxypropanoyl)piperidin-4-yl)oxy)-5-(4-((4-(1-(oxetan-3-yl)piperidin-4-yl)phenyl)amino)-1,3,5-triazin-2-yl)benzonitrile], the IC50 was above 1000 nM at hJAK2, 10 nM at IKKε and 6 nM against TBK1.

The term IC50 denotes the concentration that inhibits the measured activity by half.
